Experimental data as given in ChEMBL document CHEMBL2424616, “Synthesis and antimicrobial activity of novel 5-(1-adamantyl)-2-aminomethyl-4-substituted-1,2,4-triazoline-3-thiones” (2013).
≈ marks a conversion by molar mass, not a printed value.

Columns and labels:
Format in all cases: functional
Candida albicans = test: Antifungal activity against Candida albicans IFO 0583 assessed as growth inhibition at 200 ug/disc after 48 hrs by agar disc-diffusion method; settings: IFO 0583, 48 h, read-out: DIZ
Pseudomonas aeruginosa = test: Antibacterial activity against Pseudomonas aeruginosa IFO 3448 assessed as growth inhibition at 200 ug/disc after 24 hrs by agar disc-diffusion method; settings: IFO 3448, 24 h, read-out: DIZ
Escherichia coli = test: Antibacterial activity against Escherichia coli IFO 3301 assessed as growth inhibition at 200 ug/disc after 24 hrs by agar disc-diffusion method; settings: IFO 3301, 24 h, read-out: DIZ
Micrococcus luteus [1] = test: Antibacterial activity against Micrococcus luteus IFO 3232 assessed as growth inhibition at 200 ug/disc after 24 hrs by agar disc-diffusion method; settings: IFO 3232, 24 h, read-out: DIZ
Bacillus subtilis [2] = test: Antibacterial activity against Bacillus subtilis IFO 3007 assessed as growth inhibition at 200 ug/disc after 24 hrs by agar disc-diffusion method; settings: IFO 3007, 24 h, read-out: DIZ
Staphylococcus aureus [3] = test: Antibacterial activity against Staphylococcus aureus IFO 3060 assessed as growth inhibition at 200 ug/disc after 24 hrs by agar disc-diffusion method; settings: IFO 3060, 24 h, read-out: DIZ
Micrococcus luteus [4] = test: Antibacterial activity against Micrococcus luteus IFO 3232 after 24 hrs by two fold dilution method; settings: IFO 3232, 24 h
Bacillus subtilis [5] = test: Antibacterial activity against Bacillus subtilis IFO 3007 after 24 hrs by two fold dilution method; settings: IFO 3007, 24 h
Staphylococcus aureus [6] = test: Antibacterial activity against Staphylococcus aureus IFO 3060 after 24 hrs by two fold dilution method; settings: IFO 3060, 24 h

MIC (Micrococcus luteus [4]) [µg/mL] | MIC (Bacillus subtilis [5]) [µg/mL] | MIC (Staphylococcus aureus [6]) [µg/mL] | Structure (SMILES) | zone of inhibition at 200 µg/disc (Candida albicans) [mm] | zone of inhibition at 200 µg/disc (Pseudomonas aeruginosa) [mm] | zone of inhibition at 200 µg/disc (Escherichia coli) [mm] | zone of inhibition at 200 µg/disc (Micrococcus luteus [1]) [mm] | zone of inhibition at 200 µg/disc (Bacillus subtilis [2]) [mm] | zone of inhibition at 200 µg/disc (Staphylococcus aureus [3]) [mm]
– | – | – | FC(F)(F)c1cccc(NCn2nc(C34CC5CC(CC(C5)C3)C4)n(-c3ccc(Cl)cc3)c2=S)c1 | < 10 | < 10 | < 10 | 17 | 16 | 16
2 (≈ 4.16 µM) | 0.5 (≈ 1.04 µM) | 1 (≈ 2.08 µM) | CCN1CCN(Cn2nc(C34CC5CC(CC(C5)C3)C4)n(/N=C/c3ccccc3O)c2=S)CC1 | < 10 | 11 | 16 | 24 | 30 | 26
– | – | – | Cn1c(C23CC4CC(CC(C4)C2)C3)nn(CNc2ccc(F)cc2)c1=S | < 10 | < 10 | < 10 | < 10 | 12 | 12
– | 8 (≈ 16.4 µM) | – | Fc1cccc(F)c1NCn1nc(C23CC4CC(CC(C4)C2)C3)n(-c2ccc(Cl)cc2)c1=S | 13 | 11 | 14 | 17 | 20 | 18
– | – | – | Cn1c(C23CC4CC(CC(C4)C2)C3)nn(CNc2ccc(Br)cc2)c1=S | < 10 | < 10 | < 10 | < 10 | < 10 | < 10
– | – | – | S=c1n(CNc2ccc(Br)cc2)nc(C23CC4CC(CC(C4)C2)C3)n1-c1ccc(Cl)cc1 | < 10 | < 10 | < 10 | < 10 | < 10 | < 10
– | 4 (≈ 7.62 µM) | 4 (≈ 7.62 µM) | CCOC(=O)N1CCN(Cn2nc(C34CC5CC(CC(C5)C3)C4)n(/N=C/c3ccccc3O)c2=S)CC1 | < 10 | < 10 | < 10 | 16 | 19 | 18
2 (≈ 4.16 µM) | 1 (≈ 2.08 µM) | 1 (≈ 2.08 µM) | CCN1CCN(Cn2nc(C34CC5CC(CC(C5)C3)C4)n(/N=C/c3ccc(O)cc3)c2=S)CC1 | < 10 | 13 | 17 | 25 | 29 | 30
– | – | – | Fc1ccccc1NCn1nc(C23CC4CC(CC(C4)C2)C3)n(-c2ccc(Cl)cc2)c1=S | < 10 | < 10 | < 10 | 12 | 12 | 11
– | – | – | S=c1n(CNc2cc(Cl)cc(Cl)c2)nc(C23CC4CC(CC(C4)C2)C3)n1-c1ccc(Cl)cc1 | < 10 | < 10 | < 10 | 11 | 13 | 12
– | 16 (≈ 29.1 µM) | 16 (≈ 29.1 µM) | COc1ccccc1N1CCN(Cn2nc(C34CC5CC(CC(C5)C3)C4)n(-c3ccc(Cl)cc3)c2=S)CC1 | < 10 | < 10 | < 10 | 16 | 18 | 18
– | 16 (≈ 37.8 µM) | 8 (≈ 18.9 µM) | Cn1c(C23CC4CC(CC(C4)C2)C3)nn(CN2CCN(c3ccccc3)CC2)c1=S | < 10 | < 10 | < 10 | 14 | 18 | 19
– | 2 (≈ 3.68 µM) | 2 (≈ 3.68 µM) | Oc1ccccc1/C=N/n1c(C23CC4CC(CC(C4)C2)C3)nn(CN2CCN(Cc3ccccc3)CC2)c1=S | < 10 | 11 | 11 | 17 | 21 | 19
– | – | – | CCOc1ccc(NCn2nc(C34CC5CC(CC(C5)C3)C4)n(-c3ccc(Cl)cc3)c2=S)cc1 | < 10 | < 10 | < 10 | < 10 | < 10 | < 10
– | 16 (≈ 30.8 µM) | – | FC(F)(F)c1ccccc1NCn1nc(C23CC4CC(CC(C4)C2)C3)n(-c2ccc(Cl)cc2)c1=S | < 10 | 11 | 12 | 14 | 19 | 17
16 (≈ 30.3 µM) | 4 (≈ 7.57 µM) | 8 (≈ 15.1 µM) | Oc1ccccc1/C=N/n1c(C23CC4CC(CC(C4)C2)C3)nn(CN2CCN(c3ccccc3)CC2)c1=S | < 10 | 12 | 14 | 18 | 25 | 22
– | – | – | Fc1ccc(NCn2nc(C34CC5CC(CC(C5)C3)C4)n(-c3ccc(Cl)cc3)c2=S)cc1 | < 10 | < 10 | < 10 | 12 | 16 | 14
16 (≈ 28.6 µM) | 1 (≈ 1.79 µM) | 1 (≈ 1.79 µM) | COc1ccccc1N1CCN(Cn2nc(C34CC5CC(CC(C5)C3)C4)n(/N=C/c3ccc(O)cc3)c2=S)CC1 | < 10 | 14 | 16 | 18 | 29 | 30
16 (≈ 30.8 µM) | 8 (≈ 15.4 µM) | – | FC(F)(F)c1ccc(NCn2nc(C34CC5CC(CC(C5)C3)C4)n(-c3ccc(Cl)cc3)c2=S)cc1 | < 10 | 11 | 14 | 18 | 22 | 16
– | – | – | S=c1n(CN2CCN(Cc3ccccc3)CC2)nc(C23CC4CC(CC(C4)C2)C3)n1-c1ccc(Cl)cc1 | < 10 | < 10 | < 10 | 11 | 12 | 11
– | – | – | S=c1n(CNc2ccccc2Cl)nc(C23CC4CC(CC(C4)C2)C3)n1-c1ccc(Cl)cc1 | < 10 | < 10 | < 10 | < 10 | 11 | 16
– | – | – | Cn1c(C23CC4CC(CC(C4)C2)C3)nn(CNc2ccccc2)c1=S | < 10 | < 10 | < 10 | < 10 | 12 | < 10
– | – | – | S=c1n(CNc2ccccc2)nc(C23CC4CC(CC(C4)C2)C3)n1-c1ccc(Cl)cc1 | < 10 | < 10 | < 10 | < 10 | < 10 | < 10
– | – | – | S=c1n(CN2CCN(c3ccccc3)CC2)nc(C23CC4CC(CC(C4)C2)C3)n1-c1ccc(Cl)cc1 | < 10 | < 10 | < 10 | 14 | 17 | 16
– | – | – | CCOc1ccc(NCn2nc(C34CC5CC(CC(C5)C3)C4)n(C)c2=S)cc1 | < 10 | < 10 | < 10 | < 10 | < 10 | < 10
– | 8 (≈ 16.9 µM) | – | CCN1CCN(Cn2nc(C34CC5CC(CC(C5)C3)C4)n(-c3ccc(Cl)cc3)c2=S)CC1 | < 10 | < 10 | < 10 | 15 | 18 | 14
– | – | – | CCOC(=O)N1CCN(Cn2nc(C34CC5CC(CC(C5)C3)C4)n(/N=C/c3ccc(O)cc3)c2=S)CC1 | < 10 | < 10 | < 10 | 14 | 16 | 17
